For one test, the system named is Lipogenic Cells. Nature of the test: Effect of fatty acids, lipogenic cells (Table 2). The format is cell-based.
For another test, the system named is Breast Cancer Cells. The test can be described thus: Effect of fatty acids, breast cancer cells (Table 2). Format: cell-based. The note with it: FAS named only for oleic acid.
For the next test, the system named is p185^Her-2/neu. The test can be described thus: Flow cytometric analysis of cell surface-associated p185Her-2/neu. Format: cell-based, human. The note with it: scavenger of reactive oxygen species added to OA treatment. An excerpt:
FIG. 1. […] FIG. 2. […] The amount of cell surface-associated p185^Her-2/neu was quantified by flow cytometric analyses using a specific antibody against the extracellular domain of p185^Her-2/neu (Ab-5), as described herein. The mean fluorescence signal±SD (n=3) was quantified using the geo mean fluorescence (GM) parameter provided with the Cell Quest Software (Becton Dickinson). […] After labeling, cells were washed thoroughly, and localization of p185^Her-2/neu was detected by indirect immunofluorescence by incubating with FITC-conjugated anti-mouse IgG. After counterstaining with DAPI, cells were examined and photographed using a Zeiss fluorescent microscope equipped with a built-in camera. […] Before experiments, cells were serum-starved overnight and then cultured in IMEM containing 0.1% FBS in the absence or presence of GLA (Sigma Chemical Co., St. Louis, Mo.). GLA was prepared at a concentration of 1 mg/mL in ethanol and was added to a final concentration of 0, 5, 10, or 20 μg/mL; an equal volume of ethanol was added to control cells. […] A) Cell surface expression of Her-2/neu protein in BT-474 and SK-Br3 cells was determined by flow cytometry using a mouse anti-Her-2/neu antibody directed against the extracellular domain of the p185^Her-2/neu oncoprotein (clone Ab-5; Oncogene Research Products; San Diego, Calif.). Briefly, after GLA or control treatment, cells were washed, harvested, resuspended in phosphate-buffered saline (PBS) containing 1% FBS, and incubated with 5 μg/mL Ab-5 antibody for 1 hour at 4° C. The cells were washed again and then incubated with a fluorescein isothiocyanate (FITC)-conjugated anti-mouse IgG secondary antibody (Jackson ImnunoResearch Laboratories, West Grove, Pa.) diluted 1:200 in cold PBS containing 1% FBS for 45 minutes at 4° C. The cells were washed once more in cold PBS, and flow cytometric analysis was performed with a FACScalibur flow cytometer (Becton Dickinson, San Diego, Calif.) equipped with Cell Quest Software (Becton Dickinson). […] As a control for nonspecific immunofluorescence, cells were stained with the secondary antibody alone (solid black line). The mean fluorescence signal associated with cells for labeled p185^Her-2/neu was quantified using the Geo Mean (GM) fluorescence parameter provided with the software. […] B) Immunoblot analysis of Her-2/neu and PEA3 proteins in control- and GLA-treated BT-474 and SK-Br3 cells. […] Immunoreactive bands were detected by enhanced chemiluminescence reagent (Pierce, Rockford, Ill.). Blots were reprobed with an anti-β-actin goat polyclonal antibody (Santa Cruz Biotechnology) to control for protein loading and transfer. Densitometric values of protein bands were quantified using Scion Imaging Software (Scion Corp., Frederick, Md.).
A general note: A flow cytometer gives signals particle by particle.

For the molecule `CCC=CCC=CCC=CCCCCCCCC(=O)O` [ω-3 Alpha-Linolenic acid, 9,12,15-octadecatrienoic acid], the “Effect of Fatty Acids: Lipogenic Cells” value in the test on Lipogenic Cells is recorded as “No effect”. Further, in the test on Breast Cancer Cells, the “Effect of Fatty Acids: Breast Cancer Cells” value (shortened to “Effect … Breast Cancer Cells”) is listed as “Potent Down-regulator”.

In the case of `Cc1c(C)c2c(c(C)c1O)CCC(C)(CCCC(C)CCCC(C)CCCC(C)C)O2` (racemic) [vitamin E, dl-α-tocopherol, reference compound], the “prevention of OA-induced suppression of Her-2/neu overexpression” value with p185^Her-2/neu is recorded as “not significantly prevented”.

Consider `CCC=CCC=CCC=CCC=CCC=CCCCC(=O)O` [ω-3 Eicosapentaenoic acid, 5,8,11,14,17-eicosapentaenoic acid, reference compound], for which the “Effect of Fatty Acids: Lipogenic Cells” value with Lipogenic Cells is given as “Down-regulator”. Besides, the “Effect … Breast Cancer Cells” value with Breast Cancer Cells is listed as “No effect”.

With `CCCCCC=CCC=CCCCCCCCC(=O)O` [ω-6 Linoleic acid, 9,12-octadecadienoic acid, reference compound], in the test on Lipogenic Cells, the “Effect of Fatty Acids: Lipogenic Cells” value was “Potent”. In addition, the “Effect … Breast Cancer Cells” value in the test with Breast Cancer Cells was “No effect”.

Regarding `CCC=CCC=CCC=CCC=CCC=CCC=CCCC(=O)O` [ω-3 Docosahexaenoic acid, 4,7,10,13,16,19-docosahexaenoic acid, reference compound], the “Effect of Fatty Acids: Lipogenic Cells” value in the test with Lipogenic Cells was “No effect”. For the same molecule, the “Effect … Breast Cancer Cells” value in the test on Breast Cancer Cells is “Weak Down-regulator”.
